Measured values taken from article PMC8765320, “Identification of a Proteasome-Targeting Arylsulfonamide with Potential for the Treatment of Chagas’ Disease” (Antimicrobial Agents and Chemotherapy, 2022).
Read-outs that look alike come from different tables or passages of the source.

Columns and labels:
CYP51 = test system: CYP51; set-up: method as in PMID 25740547; conditions: cited from earlier work
[1] = test system: L. donovani, T. cruzi, and T. brucei; experiment: Phenotypic screening against three kinetoplastids; format: cell-based; conditions: range over all three kinetoplastids; read-out: EC50 values against the mammalian stages of these parasites
[2] = test system: L. donovani intramacrophage; set-up: method as in Peña et al. (12); conditions: ref Peña et al. (12), read-out: Mean compound 1 EC50; cited from earlier work
T. cruzi epimastigotes = experiment: T. cruzi epimastigote drug sensitivity assay (resazurin); format: cell-based, Trypanosoma cruzi; conditions: for EC50: Trypanosoma cruzi
Experimental: To examine the effects of test compounds on the growth of T. cruzi epimastigotes, mid-log-phase parasites were seeded into 96-well plates at a cell density of 5 × 10^5 cells ml^−1. Cells were exposed to test compounds over a range of concentrations (2-fold serial dilutions). Cells were incubated for 4 days, and then 20 μl of 2.5 mM resazurin was added to each well, before measuring the fluorescence (excitation, 528 nm; emission, 590 nm), following a further 24 h of incubation. […] In this equation, [I] represents the inhibitor concentration, and m is the slope factor. Experiments were repeated at least two times, and the data are presented as means plus the standard deviations.

[3] = test system: T. cruzi malic enzyme (cTcME); experiment: Malic enzyme assay in clarified epimastigote lysates (NADPH production, 340 nm); format: biochemical, Trypanosoma cruzi
Text: Malic enzyme (ME) catalyzes the oxidative decarboxylation of malate to pyruvate with the concomitant reduction of NAD(P)^+ to NAD(P)H. In light of our TPP studies, we next sought to determine whether the binding of compound 1 to cTcME inhibits enzymatic activity. The ME-dependent production of NADPH was monitored in clarified lysates of T. cruzi epimastigotes at 340 nm after the addition of malate. In the first instance, this assay was validated using ATR-073, an established inhibitor of cTcME ([27]). […] Similarly, preincubation of lysates with 20 μM and 1 μM concentrations of compound 1 inhibited ME activity by 96 and 68%, respectively (Fig. 4C). […] It should be noted that ATR-073 and compound 1 are structurally similar, both being substituted N-phenyl aryl sulfonamides, this common moiety constituting the pharmacophore of this chemical series.
Logarithmic T. cruzi epimastigotes were harvested (1,690 × g, 10 min, 4°C), washed once in ice-cold phosphate-buffered saline, and resuspended at 2 × 10^9 cells ml^−1 in lysis buffer (10 mM phosphate buffer [pH 7.2], 10 mM EDTA, 5 mM benzamidine, 5 mM phenanthroline, 0.1 mM phenylmethylsulfonyl fluoride) containing 1 mg ml^−1 digitonin, followed by incubation at 28°C for 10 min. The resulting lysate was then centrifuged (13,000 × g, 10 min, 4°C), and the supernatant was harvested and stored on ice. The protein concentration of this clarified lysate was determined by using a standard Bio-Rad protein assay.
The activity of malic enzyme was assayed as previously described ([42]), with minor modifications. T. cruzi clarified lysate (30 μl) was added to a reaction mixture (500 μl final volume) containing 50 mM Tris-HCl buffer (pH 7.6), 1 mM MnCl2, and 0.12 mM NADP^+. Reactions were initiated by the addition of 5 mM L-malate. The reduction of NADP^+ was monitored at 340 nm using a UV-2401 spectrophotometer (Shimadzu). To monitor the effect of test compounds on the activity of malic enzyme, compounds (1 and 20 μM) were preincubated for 10 min with the lysate in the reaction mixture. DMSO (0.2%) was used as control. All enzymatic activities were calculated as Δabs min^−1 mg^−1 of protein.

**Q.** For `COc1ccc(NS(=O)(=O)c2cc(-c3cc(C)n[nH]3)ccc2C)cc1OC` [Compound 1], which “CYP51 pIC50” value (CYP51) is on record?
**A.** 4.4

**Q.** What about the EC50 [1] of the same compound?
**A.** 0.1 to 8 µM

**Q.** What about the EC50 [2] of the same compound?
**A.** 8 µM

**Q.** And the EC50 (T. cruzi epimastigotes; T. cruzi epimastigote, weighted mean, n ≥ 3, read-out: Mean compound 1 EC50 ± SD)?
**A.** 3 ± 0.08 µM

**Q.** What about the EC50 (T. cruzi epimastigotes; WT promastigotes (so in the source), Fig. 2B, one biological replicate, read-out: EC50) of the same compound?
**A.** 0.7 ± 0.01 µM

**Q.** What about the EC50 (T. cruzi epimastigotes; cell line Wild type, read-out: Mean EC50 ± SD) of the same compound?
**A.** 3.3 ± 0.08 µM

**Q.** What about the EC50 (T. cruzi epimastigotes; read-out: Mean EC50 ± SD, cell line ME OE (cTcME overexpressing)) of the same compound?
**A.** 5 ± 0.11 µM

**Q.** And the EC50 (T. cruzi epimastigotes; read-out: Mean EC50 ± SD, cell line RES I (compound 1-resistant, β5 D225N))?
**A.** 61 ± 1 µM

**Q.** What about the EC50 (T. cruzi epimastigotes; read-out: Mean EC50 ± SD, cell line RES II (compound 1-resistant, β5 D225N)) of the same compound?
**A.** 54 ± 1 µM

**Q.** What about the EC50 (T. cruzi epimastigotes; read-out: Mean EC50 ± SD, cell line RES III (compound 1-resistant, β5 D225N)) of the same compound?
**A.** 61 ± 0.7 µM

**Q.** And the EC50 (T. cruzi epimastigotes; read-out: Mean EC50 ± SD, cell line RES IV (compound 1-resistant, no proteasome mutation))?
**A.** 31 ± 2 µM

**Q.** And the EC50 (T. cruzi epimastigotes; read-out: Mean EC50 ± SD, cell line RES V (compound 1-resistant, β4 I27T))?
**A.** 70 ± 2 µM

**Q.** What about the EC50 (T. cruzi epimastigotes; read-out: Mean EC50 ± SD, cell line Res I-β5 OE (β5 WT overexpressed in RES I)) of the same compound?
**A.** 13 ± 0.8 µM

**Q.** What about the EC50 (T. cruzi epimastigotes; read-out: Mean EC50 ± SD, cell line β4 F24L/I29M (CRISPR-edited)) of the same compound?
**A.** > 50 µM

**Q.** What about the EC50 (T. cruzi epimastigotes; read-out: Mean EC50 ± SD, cell line β5 D225N-OE (overexpressing mutated β5)) of the same compound?
**A.** 27 ± 1 µM

**Q.** What about the EC50 (T. cruzi epimastigotes; resistant clone I, Fig. 2B, one biological replicate, read-out: EC50) of the same compound?
**A.** 23 ± 4 µM

**Q.** What about the EC50 (T. cruzi epimastigotes; resistant clone II, Fig. 2B, one biological replicate, read-out: EC50) of the same compound?
**A.** 16 ± 0.3 µM

**Q.** What about the EC50 (T. cruzi epimastigotes; resistant clone IV, Fig. 2B, one biological replicate, read-out: EC50) of the same compound?
**A.** 11 ± 1 µM

**Q.** And the EC50 (T. cruzi epimastigotes; resistant clone V, Fig. 2B, one biological replicate, read-out: EC50)?
**A.** 14 ± 6 µM

**Q.** What about the “fold change versus the WT” value (T. cruzi epimastigotes; cell line ME OE) of the same compound?
**A.** 1 fold

**Q.** And the “fold change versus the WT” value (T. cruzi epimastigotes; cell line RES I)?
**A.** 18 fold

**Q.** What about the “fold change versus the WT” value (T. cruzi epimastigotes; cell line RES II) of the same compound?
**A.** 16 fold

**Q.** And the “fold change versus the WT” value (T. cruzi epimastigotes; cell line RES III)?
**A.** 18 fold

**Q.** What about the “fold change versus the WT” value (T. cruzi epimastigotes; cell line RES IV) of the same compound?
**A.** 9 fold

**Q.** And the “fold change versus the WT” value (T. cruzi epimastigotes; cell line RES V)?
**A.** 21 fold

**Q.** And the “fold change versus the WT” value (T. cruzi epimastigotes; cell line Res I-β5 OE)?
**A.** 4 fold

**Q.** And the “fold change versus the WT” value (T. cruzi epimastigotes; cell line β4 F24L/I29M)?
**A.** > 15 fold

**Q.** What about the “fold change versus the WT” value (T. cruzi epimastigotes; cell line β5 D225N-OE) of the same compound?
**A.** 8 fold

**Q.** What about the “susceptibility of CRISPR-edited epimastigotes” value (T. cruzi epimastigotes; β4 F24L and I29M, at all of the concentrations tested) of the same compound?
**A.** refractory

**Q.** And the “reduction in ME activity” value ([3]; preincubation of lysates with 1 μM)?
**A.** 68%

**Q.** And the “reduction in ME activity” value ([3]; preincubation of lysates with 20 μM)?
**A.** 96%
